Structures can show the parent of a compound that is named as a salt.
Target: T1, rh beta tryptase (Homo sapiens, UniProt Q15661)
T1 construct: purchased Promega
Assay: tryptase inhibition test (cleavage of N-p-tosyl-Gly-Pro-Lys-para-nitroaniline, p-nitroaniline measured at 405 nm)
Assay type: biochemical
Conditions: Tris HCl buffer pH 7.4 with calcium and heparin; substrate 0.6 mM; 5 minutes' pre-incubation, 5 minutes incubation at 37° C.
Method: The compounds according to the invention are characterised by their tryptase-inhibiting activity. This ability to inhibit tryptase was investigated using the test described as follows. The measurement is carried out in Tris HCl buffer (100 mM), which additionally contains calcium (5 mM) and heparin ([…]), at pH 7.4. The standard used is rh beta tryptase which may be obtained commercially from Promega, for example. The substrate used is N-p-tosyl-Gly-Pro-Lys-para-nitroaniline in a concentration of 0.6 mM. The substrate is digested with tryptase to form p-nitroaniline which can be measured at 405 nm. Usually, an incubation period of 5 minutes and an incubation temperature of 37° C. are chosen. The enzyme activity used is 0.91 U/ml. The measurements are carried out in an Autoanalyser (Cobas Bio) made by Hofmann LaRoche. The potential inhibitory substances are used in concentrations of 10 μM in the screening, the inhibition of the tryptase being given in percent. The IC50 is determined at over 70% inhibition (concentration at which 50% of the enzyme activity is inhibited). After 5 minutes' pre-incubation of the potential inhibitory substances, the substrate is added to start the reaction, the formation of p-nitroaniline being taken as a measurement of the enzyme activity after 5 minutes, after testing the linearity.

T1 sequence (Q15661 31-275): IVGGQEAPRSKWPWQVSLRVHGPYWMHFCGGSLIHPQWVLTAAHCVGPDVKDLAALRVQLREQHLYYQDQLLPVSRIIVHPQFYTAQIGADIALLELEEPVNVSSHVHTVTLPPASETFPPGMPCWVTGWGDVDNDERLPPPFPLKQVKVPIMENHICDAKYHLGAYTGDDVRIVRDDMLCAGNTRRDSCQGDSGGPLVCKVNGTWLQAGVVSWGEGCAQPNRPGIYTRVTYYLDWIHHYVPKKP

Molecule | IC50
Cn1c(CCc2ccc(C(=N)N)cc2)nc2cc(N(Cc3cccc4ccccc34)C(=O)CNCc3ccccc3[N+](=O)[O-])ccc21 [Example 49, N-{2-[2-(4-Amidinophenyl)-ethyl]-1-methyl-benzimidazol-5-yl}-N-( - naphthylmethyl)-[2-(2-nitrobenzylamino)-acctamide]-dihydrochloride] | 13 nM
Cn1c(CCc2ccc(C(=N)N)cc2)nc2cc(N(Cc3cccc4ccccc34)C(=O)CCCN)ccc21 [Example 20, N-{2-[2-(4-Amidinophenyl)-ethyl]-1-methyl-benzimidazol-5-yl}-N-- naphthylmethyl-[4-amino-butanoic acid amide]-dihydrochloride] | 39 nM
Cn1c(CCc2ccc(C(=N)N)cc2)nc2cc(N(Cc3ccccc3)C(=O)CCc3cccc(C(=N)N)c3)ccc21 [Example 33, N-{2-[2-(4-Amidinophenyl)-ethyl]-1-methyl-benzimidazol-5-yl}-N-benzyl-[3-(3-amidinophenyl)-propionamide]-dihydrochloride] | 26 nM
N-{2-[2-(4-Amidinophenyl)-ethyl]-1- methyl-benzimidazol-5-yl}-N-( - naphthylmethylamino)-[2-(4- trifluoromethylbenzylamino)- acetamide]-dihydrochloride [Example 44] | 31 nM
CN(C)CCOCC(=O)N(Cc1cccc2ccccc12)c1ccc2c(c1)nc(CCc1ccc(C(=N)N)cc1)n2C [Example 59, N-{2-[2-(4-Amidinophenyl)-ethyl]-1-methyl-benzimidazol-5-yl}-N-(α-naphthylmethyl)-[2-(2-dimethylaminoethoxy)-acetamide]-dihydrochloride] | 66 nM
Cn1c(CCc2ccc(C(=N)N)cc2)nc2cc(N(Cc3cccc4ccccc34)C(=O)CNCc3ccccc3N)ccc21 [Example 51, N-{2-[2-(4-Amidinophenyl)-ethyl]-1-methyl-benzimidazol-5-yl}-N-( - naphthylmethyl)-[2-(2-aminobenzylamino)-acetamide]-trihydrochloride] | 25 nM
CC(C)CN(C(=O)CCc1ccc(C(=N)N)cc1)c1ccc2c(c1)nc(CCc1ccc(C(=N)N)cc1)n2C [Example 5, N-{2-[2-(4-Amidinophenyl)-ethyl]-1-methyl-benzimidazol-5-yl}-N-isobutyl-[3-(4-amidinophenyl)-propionamide]-dihydrochloride] | 61 nM
Cn1c(CCc2ccc(C(=N)N)cc2)nc2cc(N(Cc3cccc4ccccc34)C(=O)C=Cc3ccccn3)ccc21 [Example 67, N-{2-[2-(4-Amidinophenyl)-ethyl]-1-methyl-benzimidazol-5-yl}-N-( - naphthylmethyl)-[3-(pyridin-2-yl)-acrylamide]-hydrochloride] | 39 nM
Cn1c(CCc2ccc(C(=N)N)cc2)nc2cc(N(Cc3cccc4ccccc34)C(=O)CNCc3ccc(O)cc3)ccc21 [Example 52, N-{2-[2-(4-Amidinophenyl)-ethyl]-1-methyl-benzimidazol-5-yl}-N-( - naphthylmethyl)-[2-(4-hydroxybenzylamino)-acetamide]-dihydrochloride] | 12 nM
CCN(CC)c1ccc(CNCC(=O)N(Cc2cccc3ccccc23)c2ccc3c(c2)nc(CCc2ccc(C(=N)N)cc2)n3C)cc1 [Example 54, N-{2-[2-(4-Amidinophenyl)-ethyl]-1-methyl-benzimidazol-5-yl}-N-( - naphthylmethyl)-[2-(4-diethylaminobenzylamino)-acetamide]-dihydrochloride] | 8.6 nM
Cn1c(CCc2ccc(C(=N)N)cc2)nc2cc(N(Cc3ccccc3)C(=O)CCCCNC(=N)N)ccc21 [Example 34, N-{2-[2-(4-Amidinophenyl)-ethyl]-1-methyl-benzimidazol-5-yl}-N-benzyl-[5-guanidino-pentanoic acid amide]-dihydrochloride] | 43 nM
Cc1ccc(CNCC(=O)N(Cc2cccc3ccccc23)c2ccc3c(c2)nc(CCc2ccc(C(=N)N)cc2)n3C)cc1 [Example 60, N-{2-[2-(4-Amidinophenyl)-ethyl]-1-methyl-benzimidazol-5-yl}-N-(- naphthylmethyl)-[2-(4-methylbenzylamino)-acetamide]-dihydrochloride] | 25 nM
Cn1c(CCc2ccc(C(=N)N)cc2)nc2cc(N(Cc3cccc4ccccc34)C(=O)CNCc3cccc(N)c3)ccc21 [Example 28, N-{2-[2-(4-Amidinophenyl)-ethyl]-1-methyl-benzimidazol-5-yl}-N-( - naphthylmethy)-[3-aminobenzylamino-acetamide]-trihydrochloride] | 10 nM
Cn1c(CCc2ccc(C(=N)N)cc2)nc2cc(N(Cc3cccc4ccccc34)C(=O)CNCc3ccc(-c4ccccc4)cc3)ccc21 [Example 45, N-{2-[2-(4-Amidinophenyl)-ethyl]-1-methyl-benzimidazol-5-yl}-N-( - naphthylmethyl)-[2-(4-phenylbenzylamino)-acetamide]-dihydrochloride] | 12 nM
CN(C)CCCCC(=O)N(Cc1ccccc1)c1ccc2c(c1)nc(CCc1ccc(C(=N)N)cc1)n2C [Example 26, N-{2-[2-(4-Amidinophenyl)-ethyl]-1-methyl-benzimidazol-5-yl}-N-benzyl-[5-dimethylamino-pentanoic acid amide]-dihydrochloride] | 53 nM
CCN(CC)CC(=O)N(Cc1cccc2ccccc12)c1ccc2c(c1)nc(CCc1ccc(C(=N)N)cc1)n2C [Example 66, N-{2-[2-(4-Amidinophenyl)-ethyl]-1-methyl-benzimidazol-5-yl}-N-( - naphthylmethyl)-[2-diethylaminoacetamide]-dihydrochloride] | 27 nM
N-{2-[2-(4-Amidinophenyl)-ethyl]-1- methyl-benzimidazol-5-yl}-N-( - naphthyl)-[4- dimethylaminobenzylamino- acetamide]-dihydrochloride [Example 21] | 11 nM
Cn1c(CCc2ccc(C(=N)N)cc2)nc2cc(N(Cc3ccccc3)C(=O)CCc3ccc(C(=N)N)cc3)ccc21 [Example 12, N-{2-[2-(4-Amidinophenyl)-ethyl]-1-methyl-benzimidazol-5-yl}-N-benzyl-[3-(4-amidinophenyl)-propionamide]-dihydrochloride] | 30 nM
CN(C)CCCCC(=O)N(Cc1cccc2ccccc12)c1ccc2c(c1)nc(CCc1ccc(C(=N)N)cc1)n2C [Example 25, N-{2-[2-(4-Amidinophenyl)-ethyl]-1-methyl-benzimidazol-5-yl}-N-( - naphthylmethyl)-[5-dimethylamino-pentanoic acid amide]-dihydrochloride] | 33 nM
Cn1c(CCc2ccc(C(=N)N)cc2)nc2cc(N(Cc3cccc4ccccc34)C(=O)CCC3CCN(Cc4ccccc4)CC3)ccc21 [Example 35, N-{2-[2-(4-Amidinophenyl)-ethyl]-1-methyl-benzimidazol-5-yl}-N-( - naphthylmethyl)-[3-(1-benzyl-piperidin-4-yl)-propionamide]-dihydro-chloride] | 14 nM
CN(C(=O)CCC1CCN(Cc2ccccc2)CC1)c1ccc2c(c1)nc(CCc1ccc(C(=N)N)cc1)n2C [Example 2, N-{2-[2-(4-Amidinophenyl)-ethyl]-1-methyl-benzimidazol-5-yl}-N-methyl-[3-(N-benzyl-piperid-4-yl)-propionamide]-dihydrochloride] | 190 nM
Cn1c(CCc2ccc(C(=N)N)cc2)nc2cc(N(Cc3ccc4ccccc4c3)C(=O)CCc3ccc(C(=N)N)cc3)ccc21 [Example 11, N-{2-[2-(4-Amidinophenyl)-ethyl]-1-methyl-benzimidazol-5-yl}-N-β-naphthylmethyl-[3-(4-amidinophenyl)-propionamide]-dihydrochloride] | 15 nM
Cn1c(CCc2ccc(C(=N)N)cc2)nc2cc(N(Cc3cccc4ccccc34)C(=O)CNCc3ccc(C(=N)N)cc3)ccc21 [Example 22, N-{2-[2-(4-Amidinophenyl)-ethyl]-1-methyl-benzimidazol-5-yl}-N-( - naphthylmethyl)-[4-amidinobenzylamino-acetamide]-trihydrochloride] | 10 nM
Cn1c(CCc2ccc(C(=N)N)cc2)nc2cc(N(Cc3cccc4ccccc34)C(=O)CNCc3ccccc3)ccc21 [Example 62, N-{2-[2-(4-Amidinophenyl)-ethyl]-1-methyl-benzimidazol-5-yl}-N-( - naphthylmethyl)-[2-(N-benzylamino)-acetamide]-dihydrochloride] | 29 nM
N-{2-[2-(4-Amidinophenyl)-ethyl]-1- methyl-benzimidazol-5-yl}-N-( - naphthylmethyl)-[2-(1-pyridin-2-yl- piperazin-4-yl)-acetamide]-trihydro- chloride [Example 79] | 20.1 nM
CN(C)CCCC(=O)N(Cc1cccc2ccccc12)c1ccc2c(c1)nc(CCc1ccc(C(=N)N)cc1)n2C [Example 29, N-{2-[2-(4-Amidinophenyl)-ethyl]-1-methyl-benzimidazol-5-yl}-N-( - naphthylmethyl)-[4-dimethylamino-butanoic acid amide]-dihydrochloride] | 38 nM
CN(C)CCNCC(=O)N(Cc1cccc2ccccc12)c1ccc2c(c1)nc(CCc1ccc(C(=N)N)cc1)n2C [Example 76] | 22 nM
Cn1c(CCc2ccc(C(=N)N)cc2)nc2cc(N(Cc3cccc4ccccc34)C(=O)CCCCN)ccc21 [Example 24, N-{2-[2-(4-Amidinophenyl)-ethyl]-1-methyl-benzimidazol-5-yl}-N-( - naphthylmethyl)-[5-amino-pentanoic acid amide]-dihydrochloride] | 29 nM
